pIC50: −log10 of the molar value.
What follows are molecules tested against CDK2/Cyclin E1 (Homo sapiens (Human), UniProt P24941) (assay: CDK2/Cyclin E1 HTRF enzyme activity assay (Example A)). Conditions: 1 mM ATP.
Format: biochemical
Experimental: Assays were conducted in white 384-well polystyrene plates in a final reaction volume of 8 μL. […] HTRF signals were read after 1 hour at room temperature on a PHERAstar FS plate reader (BMG Labtech). Data was analyzed with IDBS XLFit and GraphPad Prism 5.0 software using a three or four parameter dose response curve to determine IC50 for each compound.

Row | SMILES | pIC50
1 | CNC(C)c1ccc(-n2cnc(-c3nc(NC4CCN(S(C)(=O)=O)CC4)ncc3C(F)(F)F)c2)c(Cl)c1 (single isomer, unassigned) [Example 275, 4-(1-(2-Chloro-4-(1-(methylamino)ethyl)phenyl)-1H-imidazol-4-yl)-N-(1-(methylsulfonyl)piperidin-4-yl)-5-(trifluoromethyl)pyrimidin-2-amine] | ≥ 7.30
2 | CNC(C)c1ccc(-n2cnc(-c3nc(NC4CCN(S(C)(=O)=O)CC4)ncc3C(F)(F)F)c2)c(Cl)c1 (single isomer, unassigned) [Example 276, 4-(1-(2-Chloro-4-(1-(methylamino)ethyl)phenyl)-1H-imidazol-4-yl)-N-(1-(methylsulfonyl)piperidin-4-yl)-5-(trifluoromethyl)pyrimidin-2-amine] | ≥ 7.30
3 | C[C@@H]1CN(S(C)(=O)=O)CC[C@@H]1Nc1ncc(C(F)(F)F)c(-c2cn(-c3ccc(C4CCCCN4)cc3Cl)cn2)n1 (single isomer, unassigned) [Example 277] | ≥ 7.30
4 | C[C@@H]1CN(S(C)(=O)=O)CC[C@@H]1Nc1ncc(C(F)(F)F)c(-c2cn(-c3ccc(C4CCCCN4)cc3Cl)cn2)n1 (single isomer, unassigned) [Example 278] | ≥ 7.30
5 | CS(=O)(=O)N1CCC(Nc2ncc(C(F)(F)F)c(-c3cn(-c4ccc(C#N)cc4Cl)cn3)n2)CC1 [Example 1, 3-Chloro-4-(4-(2-((1-(methylsulfonyl)piperidin-4-yl)amino)-5-(trifluoromethyl)pyrimidin-4-yl)-1H-imidazol-1-yl)benzonitrile] | ≥ 7.30
6 | CS(=O)(=O)N1CCC(Nc2ncc(C(F)(F)F)c(-c3cn(-c4c(Cl)cccc4C#N)cn3)n2)CC1 [Example 2, 3-Chloro-2-(4-(2-((1-(methylsulfonyl)piperidin-4-yl)amino)-5-(trifluoromethyl)pyrimidin-4-yl)-1H-imidazol-1-yl)benzonitrile] | ≥ 7.30
7 | CNCc1ccc(-n2cnc(-c3nc(NC4CCN(S(C)(=O)=O)CC4)ncc3C(F)(F)F)c2)c(Cl)c1 [Example 3, 4-(1-(2-Chloro-4-((methylamino)methyl)phenyl)-1H-imidazol-4-yl)-N-(1-(methylsulfonyl)piperidin-4-yl)-5-(trifluoromethyl)pyrimidin-2-amine] | ≥ 7.30
8 | Cn1cnc(S(=O)(=O)N2CCC(Nc3ncc(C(F)(F)F)c(-c4cn(-c5ccc(C#N)cc5Cl)cn4)n3)CC2)c1 [Example 4, 3-Chloro-4-(4-(2-((1-((1-methyl-1H-imidazol-4-yl)sulfonyl)piperidin-4-yl)amino)-5-(trifluoromethyl)pyrimidin-4-yl)-1H-imidazol-1-yl)benzonitrile] | ≥ 7.30
9 | Cn1cnc(S(=O)(=O)N2CCC(Nc3ncc(C(F)(F)F)c(-c4cn(-c5c(Cl)cccc5C#N)cn4)n3)CC2)c1 [Example 5, 3-Chloro-2-(4-(2-((1-((1-methyl-1H-imidazol-4-yl)sulfonyl)piperidin-4-yl)amino)-5-(trifluoromethyl)pyrimidin-4-yl)-1H-imidazol-1-yl)benzonitrile] | ≥ 7.30
10 | Cn1cnc(S(=O)(=O)N2CCC(Nc3ncc(C(F)(F)F)c(-c4cn(-c5cc(N)ncc5F)cn4)n3)CC2)c1 [Example 6, 4-(1-(2-Amino-5-fluoropyridin-4-yl)-1H-imidazol-4-yl)-N-(1-((1-methyl-1H-imidazol-4-yl)sulfonyl)piperidin-4-yl)-5-(trifluoromethyl)pyrimidin-2-amine] | ≥ 7.30
11 | Cc1c(-n2cnc(-c3nc(NC4CCN(S(=O)(=O)c5cn(C)cn5)CC4)ncc3C(F)(F)F)c2)ccnc1C#N [Example 7, 3-Methyl-4-(4-(2-((1-((1-methyl-1H-imidazol-4-yl)sulfonyl)piperidin-4-yl)amino)-5-(trifluoromethyl)pyrimidin-4-yl)-1H-imidazol-1-yl)picolinonitrile] | ≥ 7.30
12 | CC(=O)Nc1nccc(-n2cnc(-c3nc(NC4CCN(S(=O)(=O)c5cn(C)cn5)CC4)ncc3C(F)(F)F)c2)c1C [Example 8, N-(3-Methyl-4-(4-(2-((1-((1-methyl-1H-imidazol-4-yl)sulfonyl)piperidin-4-yl)amino)-5-(trifluoromethyl)pyrimidin-4-yl)-1H-imidazol-1-yl)pyridin-2-yl)acetamide] | ≥ 7.30
13 | Cc1c(-n2cnc(-c3nc(NC4CCN(S(=O)(=O)c5cn(C)cn5)CC4)ncc3C(F)(F)F)c2)ccnc1N [Example 9, 4-(1-(2-Amino-3-methylpyridin-4-yl)-1H-imidazol-4-yl)-N-(1-((1-methyl-1H-imidazol-4-yl)sulfonyl)piperidin-4-yl)-5-(trifluoromethyl)pyrimidin-2-amine] | ≥ 7.30
14 | Cn1cnc(-c2nc(NC3CCN(S(=O)(=O)c4cn(C)cn4)CC3)ncc2C(F)(F)F)c1 [Example 10, 4-(1-Methyl-1H-imidazol-4-yl)-N-(1-((1-methyl-1H-imidazol-4-yl)sulfonyl)piperidin-4-yl)-5-(trifluoromethyl)pyrimidin-2-amine] | ≥ 7.30
15 | Cn1cnc(-c2nc(NC3CCN(S(C)(=O)=O)CC3)ncc2C(F)(F)F)c1 [Example 11, 4-(1-Methyl-1H-imidazol-4-yl)-N-(1-(methylsulfonyl)piperidin-4-yl)-5-(trifluoromethyl)pyrimidin-2-amine] | ≥ 7.30
16 | Cn1c(Cl)nc(-c2nc(NC3CCN(S(C)(=O)=O)CC3)ncc2C(F)(F)F)c1Cl [Example 12, 4-(2,5-Dichloro-1-methyl-1H-imidazol-4-yl)-N-(1-(methylsulfonyl)piperidin-4-yl)-5-(trifluoromethyl)pyrimidin-2-amine] | ≥ 7.30

Row | SMILES | pIC50
17 | Cn1cnc(-c2nc(NC3CCN(S(C)(=O)=O)CC3)ncc2C(F)(F)F)c1Br [Example 13, 4-(5-Bromo-1-methyl-1H-imidazol-4-yl)-N-(1-(methylsulfonyl)piperidin-4-yl)-5-(trifluoromethyl)pyrimidin-2-amine] | ≥ 7.30
18 | Cn1cnc(-c2nc(NC3CCN(S(C)(=O)=O)CC3)ncc2C(F)(F)F)c1Cl [Example 14, 4-(5-Chloro-1-methyl-1H-imidazol-4-yl)-N-(1-(methylsulfonyl)piperidin-4-yl)-5-(trifluoromethyl)pyrimidin-2-amine] | ≥ 7.30
19 | Cc1c(-c2nc(NC3CCN(S(C)(=O)=O)CC3)ncc2C(F)(F)F)ncn1C [Example 15, 4-(1,5-Dimethyl-1H-imidazol-4-yl)-N-(1-(methylsulfonyl)piperidin-4-yl)-5-(trifluoromethyl)pyrimidin-2-amine] | 6.70 to 7.30
20 | Cn1cnc(-c2nc(NC3CCN(S(C)(=O)=O)CC3)ncc2C(F)(F)F)c1C#N [Example 16, 1-Methyl-4-(2-((1-(methylsulfonyl)piperidin-4-yl)amino)-5-(trifluoromethyl)pyrimidin-4-yl)-1H-imidazole-5-carbonitrile] | ≥ 7.30
21 | Cn1cc(-c2nc(NC3CCN(S(C)(=O)=O)CC3)ncc2C(F)(F)F)nc1CO [Example 17, (1-Methyl-4-(2-((1-(methylsulfonyl)piperidin-4-yl)amino)-5-(trifluoromethyl)pyrimidin-4-yl)-1H-imidazol-2-yl)methanol] | ≥ 7.30
22 | Cn1cc(-c2nc(NC3CCN(S(C)(=O)=O)CC3)ncc2C(F)(F)F)nc1CC(C)(C)O [Example 18, 2-Methyl-1-(1-methyl-4-(2-((1-(methylsulfonyl)piperidin-4-yl)amino)-5-(trifluoromethyl)pyrimidin-4-yl)-1H-imidazol-2-yl)propan-2-ol] | ≥ 7.30
23 | Cc1nc(-c2nc(NC3CCN(S(C)(=O)=O)CC3)ncc2C(F)(F)F)cn1C [Example 19, 4-(1,2-Dimethyl-1H-imidazol-4-yl)-N-(1-(methylsulfonyl)piperidin-4-yl)-5-(trifluoromethyl)pyrimidin-2-amine] | 6.70 to 7.30
24 | Cn1cnc(S(=O)(=O)N2CCC(Nc3ncc(C(F)(F)F)c(-c4ncn(C)c4Cl)n3)CC2)c1 [Example 20, 4-(5-Chloro-1-methyl-1H-imidazol-4-yl)-N-(1-((1-methyl-1H-imidazol-4-yl)sulfonyl)piperidin-4-yl)-5-(trifluoromethyl)pyrimidin-2-amine] | ≥ 7.30
25 | CS(=O)(=O)N1CCC(Nc2ncc(C(F)(F)F)c(-c3cn(CC(F)F)cn3)n2)CC1 [Example 21, 4-(1-(2,2-Difluoroethyl)-1H-imidazol-4-yl)-N-(1-(methylsulfonyl)piperidin-4-yl)-5-(trifluoromethyl)pyrimidin-2-amine] | ≥ 7.30
26 | CC(C)(O)Cn1cnc(-c2nc(NC3CCN(S(C)(=O)=O)CC3)ncc2C(F)(F)F)c1 [Example 22, 2-Methyl-1-(4-(2-((1-(methylsulfonyl)piperidin-4-yl)amino)-5-(trifluoromethyl)pyrimidin-4-yl)-1H-imidazol-1-yl)propan-2-ol] | ≥ 7.30
27 | CS(=O)(=O)N1CCC(Nc2ncc(C(F)(F)F)c(-c3cn(CC(F)(F)F)cn3)n2)CC1 [Example 23, N-(1-(Methylsulfonyl)piperidin-4-yl)-4-(1-(2,2,2-trifluoroethyl)-1H-imidazol-4-yl)-5-(trifluoromethyl)pyrimidin-2-amine] | ≥ 7.30
28 | CS(=O)(=O)N1CCC(Nc2ncc(C(F)(F)F)c(-c3cn(C4CCOCC4)cn3)n2)CC1 [Example 24, N-(1-(Methylsulfonyl)piperidin-4-yl)-4-(1-(tetrahydro-2H-pyran-4-yl)-1H-imidazol-4-yl)-5-(trifluoromethyl)pyrimidin-2-amine] | ≥ 7.30
29 | CS(=O)(=O)N1CCC(Nc2ncc(C(F)(F)F)c(-c3cn(C(CC#N)C4CC4)cn3)n2)CC1 (stereo not shown) [Example 25, 3-Cyclopropyl-3-(4-(2-((1-(methylsulfonyl)piperidin-4-yl)amino)-5-(trifluoromethyl)pyrimidin-4-yl)-1H-imidazol-1-yl)propanenitrile] | ≥ 7.30
30 | CS(=O)(=O)N1CCC(Nc2ncc(C#N)c(-c3cn(CC(F)F)cn3)n2)CC1 [Example 26, 4-(1-(2,2-Difluoroethyl)-1H-imidazol-4-yl)-2-((1-(methylsulfonyl)piperidin-4-yl)amino)pyrimidine-5-carbonitrile] | ≥ 7.30
31 | CC(C)(O)Cn1cnc(-c2nc(NC3CCN(S(C)(=O)=O)CC3)ncc2C#N)c1 [Example 27, 4-(1-(2-Hydroxy-2-methylpropyl)-1H-imidazol-4-yl)-2-((1-(methylsulfonyl)piperidin-4-yl)amino)pyrimidine-5-carbonitrile] | ≥ 7.30

— patent US11427567B2, “Imidazolyl pyrimidinylamine compounds as CDK2 inhibitors” (Incyte Corporation, priority 2019, dated 2022)
